According to ChEMBL document CHEMBL6153136, “Cyclic Peptide Natural Product Inspired Inhibitors of the Free-Living Amoeba Balamuthia mandrillaris” (J Nat Prod, 2025):
In brackets after ≈: the same amount, converted by molar mass. Square brackets hold non-standard residues; d marks the D form. Peptide text beside a SMILES is read from it. dOrn = NCCC[C@@H](N)C(=O)O; Orn = NCCC[C@H](N)C(=O)O

Experiments:
Balamuthia mandrillaris [1] = assay: Anti-amoebic activity against Balamuthia mandrillaris CDC V093 (ATCC 50209) assessed as reduction in amoebae viability measured after 72 hrs by luminescent based CellTiter-Glo assay; format: functional, organism-based
Lactococcus lactis = assay: Antibacterial activity against Lactococcus lactis measured after 24 hrs; format: functional, organism-based
Acanthamoeba castellanii = assay: Anti-amoebic activity against Acanthamoeba castellanii assessed as reduction in amoebae viability measured for 72 hrs by luminescent based CellTiter-Glo assay; format: functional, organism-based
A549 = assay: Cytotoxicity against human A549 cells assessed as reduction in cell viability incubated for 72 hrs by CellTiter-Glo reagent based assay; format: functional; conditions: A549, 72 h
[2] = Hemolytic activity in human red blood cells assessed as hemolysis at 100 uM incubated for 1 hr by absorbance based assay relative to control; format: toxicity, cell-based, Erythrocyte; conditions: read-out: Activity
Balamuthia mandrillaris [3] = assay: Anti-amoebic activity against Balamuthia mandrillaris assessed as reduction in amoebae viability measured after 72 hrs by luminescent based CellTiter-Glo assay; format: functional, organism-based
[4] = Selectivity index, ratio of IC50 for cytotoxicity against human A549 cells to IC50 for anti-amoebic activity against Balamuthia mandrillaris CDC V093 (ATCC 50209) assessed as reduction in amoebae viability; format: toxicity, cell-based; conditions: read-out: Ratio IC50
Naegleria fowleri = assay: Anti-amoebic activity against Naegleria fowleri assessed as reduction in amoebae viability measured for 72 hrs by luminescent based CellTiter-Glo assay; format: functional, organism-based

In the case of `CC(C)[C@@H]1NC(=O)[C@@H](C)NC(=O)[C@H]([C@@H](C)O)NC(=O)[C@@H](CCCN)NC(=O)[C@H](Cc2ccccc2)NC(=O)[C@@H](Cc2ccccc2)NC1=O`, the IC50 (Balamuthia mandrillaris [1]) is reported as greater than 20 µM.

`C=C(NC(=O)[C@@H](NC(=O)[C@H](Cc1c[nH]cn1)NC(=O)[C@@H](NC(=O)[C@H](CO)NC(=O)[C@@H]1CS[C@@H](C)[C@H]2NC(=O)C(=C)NC(=O)[C@H](NC(=O)[C@H](CCCCN)NC(=O)[C@H](CCSC)NC(=O)[C@H](CC(N)=O)NC(=O)[C@@H]3CS[C@@H](C)[C@@H](NC(=O)[C@H](CCCNN)NC(=O)[C@@H]4CS[C@@H](C)[C@@H](NC(=O)[C@@H]5CSC[C@@H](NC(=O)/C(=C\C)NC(=O)[C@@H](N)[C@@H](C)CC)C(=O)N[C@@H]([C@@H](C)CC)C(=O)NC(=C)C(=O)N[C@@H]([C@@H](C)CC)C(=O)N5)C(=O)N5CCC[C@H]5C(=O)NCC(=O)N4)C(=O)NCC(=O)N[C@@H](C)C(=O)N[C@@H]([C@@H](C)CC)C(=O)N[C@@H](CCSC)C(=O)NCC(=O)N3)[C@H](C)SC[C@H](NC2=O)C(=O)N[C@@H](Cc2c[nH]cn2)C(=O)N1)[C@@H](C)CC)C(C)C)C(=O)N[C@@H](CCCCN)C(=O)O` showed an IC50 (Lactococcus lactis) of 4.5 µg/mL (≈ 1.34 µM).

Compound `NCCC[C@@H]1NC(=O)[C@@H](CCCN)NC(=O)[C@H](Cc2ccccc2)NC(=O)[C@@H](Cc2ccccc2)NC(=O)[C@H](Cc2ccccc2)NC(=O)[C@@H](CCCN)NC1=O` (cyclo(F[dF]F[dOrn][Orn][dOrn])) has an IC50 (Acanthamoeba castellanii) of 5.3 µg/mL (≈ 6.76 µM).

With `CC(C)[C@@H]1NC(=O)[C@@H](CCCCN)NC(=O)[C@H]([C@@H](C)O)NC(=O)[C@@H](CCCN)NC(=O)[C@H](Cc2ccccc2)NC(=O)[C@@H](Cc2ccccc2)NC1=O` the IC50 (Balamuthia mandrillaris [1]) was 3.8 µM, the IC50 (A549) was greater than 100 µM and the hemolysis at 1 h, 100 µM [2] was less than 10%.

`CC(C)[C@@H]1NC(=O)[C@@H](CCCNC(=N)N)NC(=O)[C@H]([C@@H](C)O)NC(=O)[C@@H](CCCN)NC(=O)[C@H](Cc2ccccc2)NC(=O)[C@@H](Cc2ccccc2)NC1=O` showed an IC50 (Balamuthia mandrillaris [1]) of 5 µM, an IC50 (Balamuthia mandrillaris [3]) of 4 µg/mL (≈ 5.23 µM) and an IC50 (A549) greater than 100 µM. The selectivity ratio at 72 h [4] was greater than 20 and the hemolysis at 1 h, 100 µM [2] was less than 10%.

Compound `CC(C)[C@@H]1NC(=O)[C@@H](CCCNC(=N)N)NC(=O)[C@H]([C@@H](C)O)NC(=O)[C@@H](CCCCN)NC(=O)[C@H](Cc2ccccc2)NC(=O)[C@@H](Cc2ccccc2)NC1=O` has an IC50 (Balamuthia mandrillaris [1]) of 4.1 µM and a hemolysis at 1 h, 100 µM [2] of less than 10%.

For `C[C@@H]1NC(=O)[C@@H](CCCNC(=N)N)NC(=O)[C@H]([C@@H](C)O)NC(=O)[C@@H](CCCN)NC(=O)[C@H](Cc2ccccc2)NC(=O)[C@@H](C)NC1=O`, the IC50 (Balamuthia mandrillaris [1]) was greater than 20 µM.

With `CC(C)[C@@H]1NC(=O)[C@@H](CCCNC(=N)N)NC(=O)[C@H](C)NC(=O)[C@@H](CCCN)NC(=O)[C@H](Cc2ccccc2)NC(=O)[C@@H](Cc2ccccc2)NC1=O` (cyclo(A[dR]V[dF]F[dOrn])) the IC50 (Balamuthia mandrillaris [1]) was 8.5 µM, the IC50 (A549) was greater than 100 µM and the hemolysis at 1 h, 100 µM [2] was less than 10%.

In the case of `CC(C)[C@H](N)C(=O)N[C@H](Cc1ccccc1)C(=O)N[C@@H](Cc1ccccc1)C(=O)N[C@H](CCCN)C(=O)N[C@H](C(=O)N[C@H](CCCNC(=N)N)C(=O)O)[C@@H](C)O` (H-V[dF]F[dOrn]T[dR]-OH), the IC50 (Balamuthia mandrillaris [1]) is reported as greater than 20 µM and the hemolysis at 1 h, 100 µM [2] is reported as less than 10%.

With `CC(C)[C@@H]1NC(=O)[C@@H](CO)NC(=O)[C@H](CCCNC(=N)N)NC(=O)[C@@H](Cc2ccccc2)NC1=O` the IC50 (Naegleria fowleri) was 6 µg/mL (≈ 12.3 µM).

Compound `CC(C)[C@@H]1NC(=O)[C@@H](CCCNC(=N)N)NC(=O)[C@H]([C@@H](C)O)NC(=O)[C@@H](C)NC(=O)[C@H](Cc2ccccc2)NC(=O)[C@@H](Cc2ccccc2)NC1=O` has an IC50 (Balamuthia mandrillaris [1]) of 11.9 µM and a hemolysis at 1 h, 100 µM [2] of less than 10%.

With `CC(C)[C@@H]1NC(=O)[C@@H](CCCNC(=N)N)NC(=O)[C@H]([C@@H](C)O)NC(=O)[C@@H](CCCN)NC(=O)[C@H](C)NC(=O)[C@@H](Cc2ccccc2)NC1=O` the IC50 (Balamuthia mandrillaris [1]) was greater than 20 µM.

For `CC(C)[C@@H]1NC(=O)[C@@H](CCCCN)NC(=O)[C@H]([C@@H](C)O)NC(=O)[C@@H](CCCCN)NC(=O)[C@H](Cc2ccccc2)NC(=O)[C@@H](Cc2ccccc2)NC1=O`, the IC50 (Balamuthia mandrillaris [1]) was 3.9 µM and the hemolysis at 1 h, 100 µM [2] was less than 10%.

`C[C@@H]1NC(=O)[C@@H](CCCNC(=N)N)NC(=O)[C@H]([C@@H](C)O)NC(=O)[C@@H](CCCN)NC(=O)[C@H](Cc2ccccc2)NC(=O)[C@@H](Cc2ccccc2)NC1=O` showed an IC50 (Balamuthia mandrillaris [1]) greater than 20 µM.
